Laboratory results: patent US20120108557A1, “FLUOROQUINOLONE DERIVATIVES FOR OPHTHALMIC APPLICATIONS” (ALCON RESEARCH, LTD., priority 2008, published 2012)

Legend:
in vitro = conditions: for Papp at 5 h, 100 μMole / MEAN LAG TIME: female, New Zealand Albino, rabbit; for MEAN LAG TIME: 100 μMole
Procedure: The procedure used is summarized below.
Female New Zealand Albino rabbits were sacrificed by first anaesthetizing with ketamine (30 mg/Kg) and xylazine (6 mg/Kg) followed by an injection of an overdose of […]* (sodium pentobarbital, 1 ml of a 26% solution) into the marginal ear vein. The intact eyes, along with the lids and conjunctival sacs were then enucleated and immediately stored in about 70 ml of fresh BSS PLUS® irrigation solution saturated with O2/CO2 (95:5).
To accomplish this, the exposed cornea of the enucleated eye was carefully placed on a corneal holder, which maintained the cornea curvature and held the eye in place. Various tissues of the eye were dissected leaving the cornea, a small ring of scleral tissue, and the palpebral conjunctiva. The conjunctival and scleral tissue served as a gasket and permitted the cornea to be suspended within the corneal ring in the center of the perfusion chamber. The chamber was jacketed to maintain the cornea and the perfusion solution at 35° C. The corneal holder and chamber were made from acrylic plastic at the University of Iowa, Iowa City, Iowa.
The mounted cornea was clamped between the two cylindrical compartments of the perfusion chamber and 7.5 mls of BSS PLUS® irrigating solution was placed in the receiving (endothelial) side of the chamber with stirring and bubbling of the O2/CO2 (95:5) mixture. Then, 7 mls of the fluoroquinolone dissolved in BSS PLUS® irrigating solution at a concentration of 100 μMole (this is approximately 4 mg/100 mL) was added to the donor (epithelial) side of the chamber also with stirring and bubbling of the O2/CO2 (95:5) mixture. The difference in volume ensured that the cornea would not buckle during the course of the experiment.
Samples (150 μL) were withdrawn from the receiving chamber every 30 minutes over a five hour period, and an equal volume of irrigating solution was immediately added to the receiving chamber to maintain a constant volume. The concentration of fluoroquinolones in the samples was determined using reverse-phase HPLC. […] Mixtures of acetonitrile and 31 mM phosphoric acid/sodium phosphate buffer at pH=3 were the mobile phase. The mobile phase (acetonitrile:phosphate buffer v/v) and UV detection wavelengths for each of the fluoroquinolones was determined beforehand. […] After each permeability experiment, the cornea was trimmed of excess scleral tissue and conjunctiva, weighed and dried overnight over phosphorus pentoxide in a vacuum desiccator. It was then reweighed in order to determine the hydration level. […] If the cornea is damaged in any way the hydration level rises. Data from corneas with hydration levels over 83% are discarded.
The rate of drug accumulation in the receiving (endothelial) chamber, and the apparent Permeability Coefficients (Papp) of the fluoroquinolones were then calculated as follows: […]

microorganisms = test: In vitro antimicrobial activity test, whole panel of test organisms; format: cell-based; conditions: across the test organisms of TABLE 3
Procedure: The activity of the compounds of the present invention was evaluated using an in vitro assay. Microorganisms were prepared from growth on agar media, in broth culture, or from thawed cryopreserved cultures. Fungal cultures were filtered to remove mycelial elements.
Using Mueller Hinton II Broth, 0.9% saline or other appropriate media, a suspension of each culture was prepared and adjusted to a turbidity equivalent to that of a 0.5 McFarland Standard. (Cultures adjusted to the 0.5 McFarland Standard generally contain approximately 1.0×10^8 CFU/mL). The adjusted suspension for each culture was diluted 1:10 in the appropriate media so that the inoculum concentration approximates 1.0×10^7 CFU/mL.
The antimicrobial agent to be tested was weighed and diluted with a volume of sterile distilled water calculated to yield the necessary starting concentration. Serial 1:2 dilutions of the antimicrobial agent in sterile distilled water were prepared (approximately 10-12 test concentrations comprise a reasonable experimental range). A known amount of each antimicrobial dilution was combined with an aliquot of agar medium calculated to yield the desired final antimicrobial test concentration and dispensed onto plates.
The amount of antimicrobial agent to be weighed was determined using the following equation: […]
Antimicrobial stock solutions were prepared at concentrations 5-10 times the highest concentration to be tested (routinely 1024 μg/mL). […] The stock solution was diluted to appropriate concentration using sterile water to form a working solution. The working solution was diluted two-fold, in sterile water, until the desired concentration is obtained.
Mueller Hinton II agar was prepared as described by the manufacturer. Mueller Hinton II agar may be supplemented with 5% defibrinated sheep blood for testing streptococci. Agar was added to the serially diluted antimicrobial solution in each container. The solutions were mixed thoroughly and poured into petri dishes (about 25 mL/plate). The pH of the agar at 25° C. should be between 7.2 and 7.4. […]

In the case of `Nc1c(F)c(N2CC3CCCNC3C2)c(F)c2c1c(=O)c(C(=O)O)cn2C1CC1` [Compound 3 (S,S)], the Papp at 5 h, 100 μMole (in vitro) is reported as 13.6 ×10⁻⁶ cm/s and the “MEAN LAG TIME” value (in vitro) is reported as 45 min.
For `CN1CCCC2CN(c3c(F)cc4c(=O)c(C(=O)O)cn(C5CC5)c4c3F)CC21` (stereo not drawn) [Compound 1], the “antimicrobial activity compared to moxifloxacin (in words)” value (microorganisms) was “somewhat better antimicrobial activity against certain microorganisms compared to moxifloxacin, and performed comparably when taken as a whole”, the “permeability and lag characteristics among the compounds studied (in words)” value (in vitro) was “best permeability and lag characteristics of the compounds studied” and the Papp at 5 h, 100 μMole (in vitro) was 31.1 ×10⁻⁶ cm/s. For the same compound, the “MEAN LAG TIME” value (in vitro) was 12 min.
With `Nc1c(F)c(N2CC3CCCNC3C2)c(F)c2c1c(=O)c(C(=O)O)cn2C1CC1` (racemic) [Compound 3 (racemic)] the Papp at 5 h, 100 μMole (in vitro) was 16.6 ×10⁻⁶ cm/s and the “MEAN LAG TIME” value (in vitro) was 38 min.
For `CN1CCCC2CN(c3cc4c(cc3F)c(=O)c(C(=O)O)cn4C3CC3)CC21` (stereo not drawn) [Compound 2], the “antimicrobial activity compared to moxifloxacin (in words)” value (microorganisms) was “generally did not perform as well as moxifloxacin”, the “permeability and lag characteristics among the compounds studied (in words)” value (in vitro) was “best permeability and lag characteristics of the compounds studied” and the Papp at 5 h, 100 μMole (in vitro) was 20.5 ×10⁻⁶ cm/s. For the same compound, the “MEAN LAG TIME” value (in vitro) was 27 min.
